Test results as given in patent US9409952B2, “Peptide-compound cyclization method” (Chugai Seiyaku Kabushiki Kaisha, priority 2011, dated 2016).
Read-outs that look alike come from different tables or passages of the source. Starred links: 1 amine or outer side, 2 acyl side, 3 side chain; linkers in the order of their positions; H or OH if unused. Positions of bridges follow the written chain, without caps; N, C: chain ends. Non-standard residues stand in square brackets, D forms with d. Residues, ends and D or L forms follow the SMILES beside them. *: point of attachment. NMePhe(3-Cl) = CN[C@@H](Cc1cccc(Cl)c1)C(=O)O; NMeF = CN[C@@H](Cc1ccccc1)C(=O)O; NMeβAla = CN(CCC(=O)[*:2])[*:1]; NMeL = CN[C@@H](CC(C)C)C(=O)O; NMeA = CN[C@@H](C)C(=O)O; Piperidide = C1CCN(*)CC1; Sar = CNCC(=O)O

Legend:
[1] = PAMPA (parallel artificial membrane permeability assay); assay type: in vitro ADME; details: for Papp at 18 hours, 50 µM: PAMPA
Summary of the method: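 Artificial membrane was 10% (w/v) egg lecithin plus 0.5% (w/v) cholesterol in dodecane on a PVDF filter. A 10 mM DMSO stock was added at 0.5% (v/v) to donor buffer (50 mM MOPSO, pH 6.5, 5.0% glycocholic acid). After 18 h at 37 °C, LC/MS or LC/UV gave donor and acceptor levels for Pe.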

[2] = Metabolic stability in human hepatic microsome; assay type: in vitro ADME; details: microsomes
[3] = membrane permeation rate (Pe), 50 mM MOPSO buffer pH 6.5 with 5.0% glycocholic acid, 37° C., 18 hours
[4] = pH 7.4, human hepatic microsome, NADPH(+), read-out: CL NADPH(+)
[5] = membrane permeation rate (Pe), 50 mM MOPSO buffer pH 6.5 with 5.0% glycocholic acid, 37° C., 18 hours, read-out: iPAMPA Pe

Compound | iPAMPA Pe [1, 3] | microsomal CLint at 1 uM [2, 4] | Papp at 18 hours, 50 µM [1, 5] | Papp at 18 hours, 50 µM ([1]; pH 6.5) | microsomal CLint at 1 uM ([2]; human, pH 7.4, CL NADPH(+))
CC[C@H](C)[C@H](NC(=O)[C@H](CC(C)C)N(C)C(=O)[C@H](C)N(C)C(=O)[C@@H](NC(=O)[C@H](CC(C)C)N(C)C(=O)[C@@H]1CC(=O)N[C@H](C(C)C)C(=O)N(C)[C@@H](C)C(=O)N(C)[C@@H](Cc2cccc(Cl)c2)C(=O)N(C)[C@@H](CC(C)C)C(=O)N[C@@H]([C@@H](C)O)C(=O)N(C)[C@@H](CC(C)C)C(=O)N1)[C@@H](C)CC)C(=O)N1CCCCC1 [DP-911] ([dV][NMeA][NMePhe(3-Cl)][NMeL]T[NMeL]D[NMeL]I[NMeA][NMeL]I-Piperidide; lactam N-7) | 1.0E−07 | 152 µL/min/mg |  |  | 
CC[C@H](C)[C@H](NC(=O)CN(C)C(=O)[C@H](Cc1ccccc1)N(C)C(=O)[C@H](CC(C)C)N(C)C(=O)[C@@H](NC(=O)[C@@H]1CC(=O)N(C)[C@@H](C)C(=O)N[C@@H](CC(C)C)C(=O)N(C)[C@@H](CC(C)C)C(=O)N(C)[C@@H](C)C(=O)N(C)[C@@H](Cc2cccc(Cl)c2)C(=O)N[C@@H]([C@@H](C)O)C(=O)N1)C(C)C)C(=O)N1CCCCC1 [DP-912] ([NMeA]L[NMeL][NMeA][NMePhe(3-Cl)]TDV[NMeL][NMeF][Sar]I-Piperidide; lactam N-7) |  | 8 µL/min/mg | 1.3 ×10⁻⁶ cm/s |  | 
CC[C@H](C)[C@@H]1NC(=O)[C@H](C(C)C)NC(=O)[C@H](Cc2ccccc2)N(C)C(=O)[C@H](C(C)C)NC(=O)[C@H](CC(C)C)N(C)C(=O)[C@H](C)NC(=O)C[C@@H](C(=O)N(C)[C@@H](Cc2ccccc2)C(=O)N(C)[C@@H](CC(C)C)C(=O)N[C@H](C(=O)N(C)[C@@H](CC(C)C)C(=O)N[C@H](C(=O)N2CCCCC2)[C@@H](C)CC)[C@@H](C)O)NC1=O [DP-913] (A[NMeL]V[NMeF]VID[NMeF][NMeL]T[NMeL]I-Piperidide; lactam N-7) | 1.0E−07 | 30 µL/min/mg |  |  | 
CC[C@H](C)[C@H](NC(=O)[C@H](CC(C)C)NC(=O)[C@H](CC(C)C)N(C)C(=O)[C@H](Cc1cccc(Cl)c1)N(C)C(=O)[C@@H](NC(=O)[C@@H]1CC(=O)N[C@@H](Cc2ccccc2)C(=O)N[C@@H]([C@@H](C)O)C(=O)N[C@@H](CC(C)C)C(=O)N(C)[C@@H](CC(C)C)C(=O)N(C)[C@@H](C)C(=O)N(C)[C@@H](CC(C)C)C(=O)N1)[C@@H](C)CC)C(=O)N1CCCCC1 [DP-914] (FTL[NMeL][NMeA][NMeL]DI[NMePhe(3-Cl)][NMeL]LI-Piperidide; lactam N-7) | 1.0E−07 | 29 µL/min/mg |  |  | 
CC[C@H](C)[C@H](NC(=O)[C@H](Cc1ccccc1)N(C)C(=O)[C@H](Cc1cccc(Cl)c1)N(C)C(=O)[C@H](C)N(C)C(=O)[C@@H]1CCCN1C(=O)[C@@H]1CC(=O)N[C@@H](C)C(=O)N(C)[C@@H](CC(C)C)C(=O)N(C)[C@@H](Cc2ccccc2)C(=O)N[C@@H]([C@@H](C)O)C(=O)N(C)[C@@H](Cc2ccccc2)C(=O)N[C@@H](CC(C)C)C(=O)N1)C(=O)N1CCCCC1 [DP-915] (A[NMeL][NMeF]T[NMeF]LDP[NMeA][NMePhe(3-Cl)][NMeF]I-Piperidide; lactam N-7) | 1.0E−07 | 89 µL/min/mg |  |  | 
CC[C@H](C)[C@H](NC(=O)[C@H](CC(C)C)N(C)C(=O)[C@H](CC(C)C)N(C)C(=O)[C@H](Cc1ccccc1)N(C)C(=O)[C@@H]1CC(=O)N[C@H](C(C)C)C(=O)N(C)[C@@H](Cc2cccc(Cl)c2)C(=O)N(C)[C@@H](C)C(=O)N(C)[C@@H](CC(C)C)C(=O)N[C@@H]([C@@H](C)O)C(=O)N(C)[C@@H](CC(C)C)C(=O)N1)C(=O)N1CCCCC1 [DP-916] ([dV][NMePhe(3-Cl)][NMeA][NMeL]T[NMeL]D[NMeF][NMeL][NMeL]I-Piperidide; lactam N-7) | 1.0E−07 | 55 µL/min/mg |  |  | 
CC[C@H](C)[C@H](NC(=O)[C@H](Cc1ccccc1)NC(=O)[C@@H](NC(=O)[C@@H]1CC(=O)N[C@H](C)C(=O)N(C)[C@@H](CC(C)C)C(=O)N[C@@H]([C@@H](C)O)C(=O)N(C)[C@@H](CC(C)C)C(=O)N(C)[C@@H](Cc2ccccc2)C(=O)N(C)[C@@H](CC(C)C)C(=O)N1)C(C)C)C(=O)N[C@H](C(=O)N1CCCCC1)[C@@H](C)CC [DP-917] ([dA][NMeL]T[NMeL][NMeF][NMeL]DVFII-Piperidide; lactam N-7) | 1.0E−07 | 177 µL/min/mg |  |  | 
CC[C@H](C)[C@H](NC(=O)[C@H](C)N(C)C(=O)[C@H](Cc1ccccc1)N(C)C(=O)[C@H](CC(C)C)N(C)C(=O)[C@@H]1CC(=O)N[C@@H](C)C(=O)N(C)[C@@H](Cc2ccccc2)C(=O)N(C)[C@@H](CC(C)C)C(=O)N[C@@H]([C@@H](C)O)C(=O)N(C)CC(=O)N(C)[C@@H](Cc2ccccc2)C(=O)N1)C(=O)N1CCCCC1 [DP-918] (A[NMeF][NMeL]T[Sar][NMeF]D[NMeL][NMeF][NMeA]I-Piperidide; lactam N-7) |  | 55 µL/min/mg | 5.3 ×10⁻⁶ cm/s |  | 
CC[C@H](C)[C@H](NC(=O)[C@H](CC(C)C)NC(=O)[C@H](CC(C)C)N(C)C(=O)CN(C)C(=O)[C@@H]1CC(=O)N[C@H](C)C(=O)N[C@@H]([C@@H](C)O)C(=O)N(C)[C@@H](CC(C)C)C(=O)N[C@@H]([C@@H](C)CC)C(=O)N(C)[C@@H](CC(C)C)C(=O)N[C@@H](CC(C)C)C(=O)N1)C(=O)N1CCCCC1 [DP-919] ([dA]T[NMeL]I[NMeL]LD[Sar][NMeL]LI-Piperidide; lactam N-7) |  | 128 µL/min/mg | 27 ×10⁻⁶ cm/s |  | 
CC[C@H](C)[C@H](NC(=O)[C@H](Cc1ccccc1)N(C)C(=O)[C@H](CC(C)C)N(C)C(=O)[C@@H](NC(=O)[C@@H]1CC(=O)N(C)[C@@H](C)C(=O)N[C@@H]([C@@H](C)CC)C(=O)N(C)[C@@H](CC(C)C)C(=O)N[C@@H]([C@@H](C)O)C(=O)N[C@@H](CC(C)C)C(=O)N(C)[C@@H](Cc2cccc(Cl)c2)C(=O)N1)C(C)C)C(=O)N1CCCCC1 [DP-920] ([NMeA]I[NMeL]TL[NMePhe(3-Cl)]DV[NMeL][NMeF]I-Piperidide; lactam N-7) |  | 27 µL/min/mg | 0.22 ×10⁻⁶ cm/s |  | 
CC[C@H](C)[C@H](NC(=O)[C@H](CC(C)C)N(C)C(=O)[C@H](Cc1ccccc1)NC(=O)[C@H](Cc1ccccc1)N(C)C(=O)[C@@H]1CC(=O)N(C)[C@@H](C)C(=O)N[C@@H](C(C)C)C(=O)N[C@@H](CC(C)C)C(=O)N(C)[C@@H](Cc2ccccc2)C(=O)N[C@@H](CC(C)C)C(=O)N[C@@H]([C@@H](C)O)C(=O)N1)C(=O)N1CCCCC1 [DP-921] ([NMeA]VL[NMeF]LTD[NMeF]F[NMeL]I-Piperidide; lactam N-7) |  | 88 µL/min/mg | 0.34 ×10⁻⁶ cm/s |  | 
CC[C@H](C)[C@H](NC(=O)[C@@H](NC(=O)[C@H](Cc1ccccc1)NC(=O)[C@H](CC(C)C)N(C)C(=O)[C@@H](NC(=O)[C@@H]1CC(=O)N[C@@H](C)C(=O)N(C)[C@@H](C)C(=O)N(C)[C@@H](Cc2ccccc2)C(=O)N[C@@H]([C@@H](C)O)C(=O)N(C)[C@@H](Cc2ccccc2)C(=O)N[C@@H](CC(C)C)C(=O)N2CCC[C@H]2C(=O)N1)[C@@H](C)CC)C(C)C)C(=O)N1CCCCC1 [DP-922] (A[NMeA][NMeF]T[NMeF]LPDI[NMeL]FVI-Piperidide; lactam N-8) |  |  |  | 0.12 ×10⁻⁶ cm/s | 70 µL/min/mg
CC[C@H](C)[C@H](NC(=O)[C@H](Cc1cccc(Cl)c1)N(C)C(=O)[C@H](CC(C)C)NC(=O)[C@H](C)N(C)C(=O)[C@H](CC(C)C)N(C)C(=O)[C@@H]1CC(=O)N[C@@H](Cc2ccccc2)C(=O)N(C)[C@@H](Cc2ccccc2)C(=O)N2CCC[C@H]2C(=O)N[C@@H](CC(C)C)C(=O)N(C)[C@@H](Cc2cccc(Cl)c2)C(=O)N[C@@H]([C@@H](C)O)C(=O)N[C@@H](CC(C)C)C(=O)N1)C(=O)N1CCCCC1 [DP-923] (F[NMeF]PL[NMePhe(3-Cl)]TLD[NMeL][NMeA]L[NMePhe(3-Cl)]I-Piperidide; lactam N-8) |  |  |  | 0.1 ×10⁻⁶ cm/s | 8 µL/min/mg
CC[C@H](C)[C@H](NC(=O)[C@H](CC(C)C)N(C)C(=O)CN(C)C(=O)[C@H](C)N(C)C(=O)[C@H](Cc1ccccc1)N(C)C(=O)[C@@H]1CC(=O)N[C@H](C(C)C)C(=O)N[C@@H](C(C)C)C(=O)N[C@@H]([C@@H](C)O)C(=O)N[C@@H](CC(C)C)C(=O)N[C@@H](Cc2ccccc2)C(=O)N(C)[C@@H](CC(C)C)C(=O)N(C)[C@@H](Cc2cccc(Cl)c2)C(=O)N1)C(=O)N1CCCCC1 [DP-924] ([dV]VTLF[NMeL][NMePhe(3-Cl)]D[NMeF][NMeA][Sar][NMeL]I-Piperidide; lactam N-8) |  | 19 µL/min/mg | 0.1 ×10⁻⁶ cm/s |  | 
CC[C@H](C)[C@H](NC(=O)[C@H](CC(C)C)NC(=O)[C@@H]1CCCN1C(=O)[C@H](CC(C)C)NC(=O)[C@H](CC(C)C)N(C)C(=O)[C@@H]1CC(=O)N[C@@H](Cc2ccccc2)C(=O)N[C@@H](CC(C)C)C(=O)N(C)[C@@H](CC(C)C)C(=O)N[C@@H]([C@@H](C)O)C(=O)N(C)[C@@H](Cc2cccc(Cl)c2)C(=O)N(C)[C@@H](C)C(=O)N(C)[C@@H](CC(C)C)C(=O)N1)C(=O)N1CCCCC1 [DP-925] (FL[NMeL]T[NMePhe(3-Cl)][NMeA][NMeL]D[NMeL]LPLI-Piperidide; lactam N-8) |  | 2 µL/min/mg | 0.1 ×10⁻⁶ cm/s |  | 
CC[C@H](C)[C@@H]1NC(=O)[C@H](CC(C)C)N(C)C(=O)[C@H]([C@@H](C)O)NC(=O)[C@H](CC(C)C)N(C)C(=O)[C@H](C(C)C)NC(=O)[C@H](Cc2ccccc2)N(C)C(=O)CCN(C)C(=O)C[C@@H](C(=O)N2CCC[C@H]2C(=O)N[C@H](C(=O)N(C)[C@@H](Cc2cccc(Cl)c2)C(=O)N(C)[C@@H](Cc2ccccc2)C(=O)N[C@H](C(=O)N2CCCCC2)[C@@H](C)CC)C(C)C)NC1=O [DP-926] ([NMeβAla][NMeF]V[NMeL]T[NMeL]IDPV[NMePhe(3-Cl)][NMeF]I-Piperidide; lactam N-8) |  | 53 µL/min/mg | 0.1 ×10⁻⁶ cm/s |  | 
